According to publication PMC2992454 (ACS chemical neuroscience, 2010):

Assays:
20S proteasome = conditions: localize inside the 20S subunit along the active proteolytic site; ref [14], [15]; cited from earlier work
[1] = target: h20S proteasome, chymotrypsin-like activity (Homo sapiens, UniProt P28074); experiment: Kinetic analysis of proteasome chymotrypsin-like activity with or without Aβ; type: biochemical; conditions: pH 7.8, 37°C; for Vmax: LLVY-AMC 0–200 µM, 40 ng h20S in 100 µL

Vmax ([1]; 0 µM Aβ(1–42)) | Vmax ([1]; 1 µM oligomeric Aβ(1–42)) | Vmax ([1]; 5 µM oligomeric Aβ(1–42)) | Vmax, lower end over all Aβ concentrations ([1]; oligomeric Aβ(1–42) 0–5 µM, Table 1: 0 and 0.5 µM Aβ, LLVY-AMC) [µM/min] | Vmax, upper end over all Aβ concentrations ([1]; oligomeric Aβ(1–42) 0–5 µM, Table 1: 5 µM Aβ, LLVY-AMC) [µM/min] | Substance | effect on chymotrypsin-like activity of the proteasome (20S proteasome)
– | – | – | – | – | Aβ(1–40): Aβ(1–40) peptides | inhibit the chymotrypsin-like activity of the proteasome
3.1 ± 0.1 x10^−2µM/min | 3.5 ± 0.2 x10^−2µM/min | 3.7 ± 0.3 x10^−2µM/min | 0.031 ± 0.001 | 0.037 ± 0.003 | N-Succinyl-Leu-Leu-Val-Tyr-AMC [LLVY-AMC] | –
